Where a name gives a salt, the structure may show the parent alone.

17 compounds from patent US20160272617A1, “SUBSTITUTED PHENYLALANINE DERIVATIVES” (BAYER PHARMA AKTIENGESELLSCHAFT, priority 2013, published 2016) can be followed below.

Test [1] addresses T1, human factor XIa (Homo sapiens, UniProt P03951).
T1 construct: purchased Kordia
Put plainly: Measurement of FXIa inhibition (fluorogenic peptide substrate Boc-Glu(OBzl)-Ala-Arg-AMC). The format is biochemical. The conditions noted are these: factor XIa from Kordia, 15 min preincubation, 30 min at 22° C., fluorescence. In outline:
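Released AMC fluorescence (360/460 nm) read after 30 min at 22 °C. The reaction was started with Boc-Glu(OBzl)-Ala-Arg-AMC (10 μM stock) after a 15 min preincubation of the enzyme (0.45 nM stock) with compound (final 50 μM to 0.00013 μM).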

Test [2] concerns human and animal plasma. Put plainly: Determination of anticoagulatory activity: activated partial thromboplastin time (aPTT) in plasma. The conditions noted are these: concentration of test substance which brings about a 1.5-fold extension of the aPTT; plasma species not given. In outline: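 Citrated plasma (1:9, 0.11 M citrate; 4000 g, 15 min) from human or animal blood incubated with test compound and cephalin/kaolin PTT reagent for 3 min at 37° C.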

T1 sequence (P03951 388-625 limits assumed): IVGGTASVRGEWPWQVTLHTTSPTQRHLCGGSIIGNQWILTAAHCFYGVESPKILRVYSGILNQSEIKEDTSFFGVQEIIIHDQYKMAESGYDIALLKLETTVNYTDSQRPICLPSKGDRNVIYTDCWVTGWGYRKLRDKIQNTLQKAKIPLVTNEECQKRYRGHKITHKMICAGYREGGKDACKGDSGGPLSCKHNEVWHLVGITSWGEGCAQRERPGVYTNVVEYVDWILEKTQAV
T1 sequence (P03951 19-387 partner limits assumed): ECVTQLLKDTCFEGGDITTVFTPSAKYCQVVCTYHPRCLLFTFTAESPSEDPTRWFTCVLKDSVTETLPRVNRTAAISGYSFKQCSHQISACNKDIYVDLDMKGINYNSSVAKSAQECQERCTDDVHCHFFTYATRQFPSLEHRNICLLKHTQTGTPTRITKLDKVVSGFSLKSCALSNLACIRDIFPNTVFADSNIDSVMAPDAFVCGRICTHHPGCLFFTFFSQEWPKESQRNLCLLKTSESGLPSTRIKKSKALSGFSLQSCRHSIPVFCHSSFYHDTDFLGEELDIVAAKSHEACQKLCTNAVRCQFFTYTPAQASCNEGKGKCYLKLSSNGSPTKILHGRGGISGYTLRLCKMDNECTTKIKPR

Usually IC50 stands for the point on the concentration scale where inhibition reaches its midpoint. `Cc1cc(C(=O)NC2CCN(CC(F)(F)F)CC2)ccc1-c1ccc(C[C@H](NC(=O)[C@H]2CC[C@H](CN)CC2)C(=O)Nc2ccc(-c3nn[nH]n3)cc2)cc1` [Example 46, 4′-[(2S)-2-({[trans-4-(Aminomethyl)cyclohexyl]carbonyl}amino)-3-oxo-3-{[4-(2H-tetrazol-5-yl)phenyl]amino}propyl]-2-methyl-N-[1-(2,2,2-trifluoroethyl)piperidin-4-yl]biphenyl-4-carboxamide hydrochloride] displayed an IC50 in test [1] of 3.6 nM. The “aPTT” value in test [2] amounted to 0.22 µmol/L.

Regarding `NC[C@H]1CC[C@H](C(=O)N[C@@H](Cc2ccc(-c3ccc(C(=O)N4CCNCC4)cc3)cc2)C(=O)Nc2ccc(-c3nn[nH]n3)cc2)CC1` [Example 47, trans-4-(Aminomethyl)-N-[(2S)-1-oxo-3-[4′-(piperazin-1-ylcarbonyl)biphenyl-4-yl]-1-{[4-(2H-tetrazol-5-yl)phenyl]amino}propan-2-yl]cyclohexanecarboxamide trifluoroacetate], in test [1], the IC50 is 16 nM. The “aPTT” value in test [2] was found to be 0.51 µmol/L.

In test [1], `Cc1cc(C(=O)NC2CCNCC2)ccc1-c1ccc(C[C@H](NC(=O)[C@H]2CC[C@H](CN)CC2)C(=O)Nc2ccc(-c3nc(C(F)(F)F)n[nH]3)cc2)cc1` [Example 48, 4′-[(2S)-2-({[trans-4-(Aminomethyl)cyclohexyl]carbonyl}amino)-3-oxo-3-({4-[3-(trifluoromethyl)-1H-1,2,4-triazol-5-yl]phenyl}amino)propyl]-2-methyl-N-(piperidin-4-yl)biphenyl-4-carboxamide hydrochloride] yielded an IC50 of 2.7 nM. Moreover, the “aPTT” value in test [2] is 0.1 µmol/L.

Compound `Cc1cc(C(=O)NC2CCNCC2)ccc1-c1ccc(C[C@H](NC(=O)[C@H]2CC[C@H](CN)CC2)C(=O)Nc2ccc(-c3nnc(Cl)[nH]3)cc2)cc1` [Example 49, 4′-[(2S)-2-({[trans-4-(Aminomethyl)cyclohexyl]carbonyl}amino)-3-{[4-(3-chloro-4H-1,2,4-triazol-5-yl)phenyl]amino}-3-oxopropyl]-2-methyl-N-(piperidin-4-yl)biphenyl-4-carboxamide hydrochloride] came in with a half-maximal inhibitory concentration (IC50) in test [1] of 2.1 nM. Moreover, the “aPTT” value in test [2] came out at 0.08 µmol/L.

Take `Cc1nc2ccc(NC(=O)[C@H](Cc3ccc(-c4ccc(C(=O)NC5CCNCC5)cc4C)cc3)NC(=O)[C@H]3CC[C@H](CN)CC3)cc2[nH]1` [Example 50, 4′-{(2S)-2-({[trans-4-(Aminomethyl)cyclohexyl]carbonyl}amino)-3-[(2-methyl-1H-benzimidazol-6-yl)amino]-3-oxopropyl}-2-methyl-N-(piperidin-4-yl)biphenyl-4-carboxamide hydrochloride]: half-maximal inhibition in test [1] (IC50) required 8.3 nM. The “aPTT” value in test [2] was determined as 0.16 µmol/L.

The compound `Cc1cc(C(=O)NC2CCNCC2)ccc1-c1ccc(C[C@H](NC(=O)[C@H]2CC[C@H](CN)CC2)C(=O)Nc2ccc3[nH]c(-c4ccccn4)nc3c2)cc1` [Example 51, 4′-[(2S)-2-({[trans-4-(Aminomethyl)cyclohexyl]carbonyl}amino)-3-oxo-3-{[2-(pyridin-2-yl)-1H-benzimidazol-5-yl]amino}propyl]-2-methyl-N-(piperidin-4-yl)biphenyl-4-carboxamide hydrochloride] displayed a half-inhibitory concentration (IC50) in test [1] of 11 nM. Further, in test [2], the “aPTT” value stood at 0.44 µmol/L.

Compound `Cc1cc(C(=O)NC2CCNCC2)ccc1-c1ccc(C[C@H](NC(=O)[C@H]2CC[C@H](CN)CC2)C(=O)Nc2ccc3nc(C(F)(F)F)[nH]c3c2)cc1` [Example 52, 4′-[(2S)-2-({[trans-4-(Aminomethyl)cyclohexyl]carbonyl}amino)-3-oxo-3-{[2-(trifluoromethyl)-1H-benzimidazol-6-yl]amino}propyl]-2-methyl-N-(piperidin-4-yl)biphenyl-4-carboxamide hydrochloride] showed a half-maximal inhibitory concentration (IC50) in test [1] of 14 nM. In test [2], the “aPTT” value stood at 0.2 µmol/L.

`Cc1cc(C(=O)NC2CCNCC2)ccc1-c1ccc(C[C@H](NC(=O)[C@H]2CC[C@H](CN)CC2)C(=O)Nc2ccc3[nH]c(=O)[nH]c3c2)cc1` [Example 53, 4′-{(2S)-2-({[trans-4-(Aminomethyl)cyclohexyl]carbonyl}amino)-3-oxo-3-[(2-oxo-2,3-dihydro-1H-benzimidazol-5-yl)amino]propyl}-2-methyl-N-(piperidin-4-yl)biphenyl-4-carboxamide hydrochloride] had an IC50 in test [1] of 16 nM. Besides, the “aPTT” value in test [2] came out at 0.16 µmol/L.

For the compound `COCc1nnc(-c2ccc(NC(=O)[C@H](Cc3ccc(-c4ccc(C(=O)NC5CCNCC5)cc4C)cc3)NC(=O)[C@H]3CC[C@H](CN)CC3)cc2)[nH]1` [Example 54, 4′-[(2S)-2-({[trans-4-(Aminomethyl)cyclohexyl]carbonyl}amino)-3-({4-[3-(methoxymethyl)-4H-1,2,4-triazol-5-yl]phenyl}amino)-3-oxopropyl]-2-methyl-N-(piperidin-4-yl)biphenyl-4-carboxamide hydrochloride], the half-inhibitory concentration (IC50) in test [1] turned out to be 16 nM. Also, the “aPTT” value in test [2] came to 0.24 µmol/L.

In test [1], `Cc1cc(C(=O)NC2CCNCC2)ccc1-c1ccc(C[C@H](NC(=O)[C@H]2CC[C@H](CN)CC2)C(=O)Nc2ccc3[nH]c(=O)oc3c2)cc1` [Example 55, 4′-{(2S)-2-({[trans-4-(Aminomethyl)cyclohexyl]carbonyl}amino)-3-oxo-3-[(2-oxo-2,3-dihydro-1,3-benzoxazol-6-yl)amino]propyl}-2-methyl-N-(piperidin-4-yl)biphenyl-4-carboxamide hydrochloride] displayed a half-maximal inhibitory concentration (IC50) of 41 nM. Further, the “aPTT” value in test [2] worked out at 0.37 µmol/L.

Regarding `Cc1nnc(-c2ccc(NC(=O)[C@H](Cc3ccc(-c4ccc(C(=O)NC5CCNCC5)cc4C)cc3)NC(=O)[C@H]3CC[C@H](CN)CC3)cc2)[nH]1` [Example 56, 4′-[(2S)-2-({[trans-4-(Aminomethyl)cyclohexyl]carbonyl}amino)-3-{[4-(3-methyl-4H-1,2,4-triazol-5-yl)phenyl]amino}-3-oxopropyl]-2-methyl-N-(piperidin-4-yl)biphenyl-4-carboxamide hydrochloride], in test [1], the IC50 came out at 48 nM. Moreover, the “aPTT” value in test [2] came out at 0.44 µmol/L.

`Cc1cc(C(=O)NC2CCNCC2)ccc1-c1ccc(C[C@H](NC(=O)[C@H]2CC[C@H](CN)CC2)C(=O)Nc2ccc3[nH]c(C(F)(F)C(F)(F)F)nc3c2)cc1` [Example 57, 4′-[(2S)-2-({[trans-4-(Aminomethyl)cyclohexyl]carbonyl}amino)-3-oxo-3-{[2-(pentafluoroethyl)-1H-benzimidazol-5-yl]amino}propyl]-2-methyl-N-(piperidin-4-yl)biphenyl-4-carboxamide hydrochloride] yielded a half-maximal inhibitory concentration (IC50) in test [1] of 8.4 nM. For the same compound, the “aPTT” value in test [2] was 0.44 µmol/L.

In the case of `Cc1cc(C(=O)NC2CCNCC2)ccc1-c1ccc(C[C@H](NC(=O)[C@H]2CC[C@H](CN)CC2)C(=O)Nc2ccc3nc(-c4cccnc4)[nH]c3c2)cc1` [Example 59, 4′-[(2S)-2-({[trans-4-(Aminomethyl)cyclohexyl]carbonyl}amino)-3-oxo-3-{[2-(pyridin-3-yl)-1H-benzimidazol-6-yl]amino}propyl]-2-methyl-N-(piperidin-4-yl)biphenyl-4-carboxamide hydrochloride], the IC50 in test [1] was found to be 34 nM. For the same compound, in test [2], the “aPTT” value was determined as 0.51 µmol/L.

`Cc1cc(C(=O)NC2CCNCC2)ccc1-c1ccc(C[C@H](NC(=O)[C@H]2CC[C@H](CN)CC2)C(=O)Nc2ccc3nc(-n4cccn4)[nH]c3c2)cc1` [Example 60, 4′-[(2S)-2-({[trans-4-(Aminomethyl)cyclohexyl]carbonyl}amino)-3-oxo-3-{[2-(1H-pyrazol-1-yl)-1H-benzimidazol-6-yl]amino}propyl]-2-methyl-N-(piperidin-4-yl)biphenyl-4-carboxamide hydrochloride] had a 50% inhibitory concentration (IC50) in test [1] of 45 nM. Moreover, the “aPTT” value in test [2] stood at 0.63 µmol/L.

With `Cc1cc(C(=O)NC2CCNCC2)ccc1-c1ccc(C[C@H](NC(=O)[C@H]2CC[C@H](CN)CC2)C(=O)Nc2ccc(-c3nn[nH]n3)cc2)cc1F` [Example 61, 4′-[(2S)-2-({[trans-4-(Aminomethyl)cyclohexyl]carbonyl}amino)-3-oxo-3-{[4-(2H-tetrazol-5-yl)phenyl]amino}propyl]-2′-fluoro-2-methyl-N-(piperidin-4-yl)biphenyl-4-carboxamide hydrochloride], in test [1], the IC50 amounted to 3.2 nM. Also, the “aPTT” value in test [2] came out at 0.07 µmol/L.

As to `NC[C@H]1CC[C@H](C(=O)N[C@@H](Cc2ccc(-c3ccc(C(=O)NC4CC4)cc3)cc2)C(=O)Nc2ccc(-c3nnn[nH]3)cc2)CC1` [Example 62, 4′-[(2S)-2-({[trans-4-(Aminomethyl)cyclohexyl]carbonyl}amino)-3-oxo-3-{[4-(1H-tetrazol-5-yl)phenyl]amino}propyl]-N-cyclopropylbiphenyl-4-carboxamide hydrochloride], the IC50 in test [1] was 2.9 nM. Besides, the “aPTT” value in test [2] is 0.53 µmol/L.

Turning to `Cc1cc(C(=O)NC2CCC(N(C)C)CC2)ccc1-c1ccc(C[C@H](NC(=O)[C@H]2CC[C@H](CN)CC2)C(=O)Nc2ccc(-c3nn[nH]n3)c(F)c2)cc1` (stereo partly drawn) [Example 63, 4′-[(2S)-2-({[trans-4-(Aminomethyl)cyclohexyl]carbonyl}amino)-3-{[3-fluoro-4-(2H-tetrazol-5-yl)phenyl]amino}-3-oxopropyl]-N-[4-(dimethylamino)cyclohexyl]-2-methylbiphenyl-4-carboxamide hydrochloride], the 50% inhibitory concentration (IC50) in test [1] was determined as 2.1 nM. Also, the “aPTT” value in test [2] turned out to be 0.01 µmol/L.
